# Settings: mouse, microsomes, 1 h
# Description: Metabolic stability in mouse liver microsomes assessed as reduction in NADPH incubated for 60 mins by fluorescence based assay relative to control
structure (smiles),measurement,value
CCOC(=O)N1CCC(NC(=S)Nc2cc(Cl)cc(Cl)c2)CC1,Stability,Stable

# From ChEMBL document CHEMBL6103551 (Bioorg Med Chem Lett, 2025)
